Experimental findings from patent US20160030522A1, “COMBINATION THERAPY TO IMPROVE SOFT TISSUE HEALING, FAT GRAFT HEALING, ENDOCHONDRAL BONE HEALING AND OSTEOINTEGRATION” (priority 2013, published 2016) are described below.

This test has as its system trephine defect. Kind of test: Bony ingrowth / regeneration in the trephine defect after systemic treatment of mice. Type of test: in vivo. To be noted: systemic administration.

Experimental: Mice and Injury Model: All experiments are performed in accordance with the IACUC guidelines. C57BL/6J wild-type mice aged 8-12 weeks are purchased from Jackson Laboratories (Bar Harbor, Me.). Mice are randomized to receive one of #1) no injury; #2) an implant stud having a porous polyethylene-polypropylene coating placed in a defect in the distal femur. […] Treatment Groups: Mice in each of the 4 experimental groups are randomly assigned to receive once daily one of: #1) saline i.p. injection; #2) AMD3100 (10 mg/kg, i.p.; PLERIXAFOR®; Genzyme Corp., Cambridge, Mass.) injection; #3) Teriparatide (0.285 mcg/kg, i.p.; FORTEO®; Eli Lilly and Company, Indianapolis, Ind.); or #4) AMD3100 (10 mg/kg, i.p.; PLERIXAFOR®; Genzyme Corp., Cambridge, Mass.); and teriparatide (0.285 mcg/kg, i.p.; FORTEO®; Eli Lilly and Company, Indianapolis, Ind.). […] BM is flushed from mouse long bones using PBS/10% FBS/5% EDTA, as previously described. Mononuclear cells (MNCs) from the peripheral blood and BM are isolated by density gradient centrifugation using Histopaque 1083 (Sigma-Aldrich; St. Louis, Mo.). […] Adobe Photoshop CS3 is used to segment and quantify positive CD31 staining. The vascular density of mouse wounds is determined by quantifying the total area of CD31+ staining (red) per megapixel (1×106 pixels square area) of wound stained.

Consider `c1cc(CN2CCCNCCNCCCNCC2)ccc1CN1CCCNCCNCCCNCC1` [AMD3100], for which the “bony ingrowth / bony regeneration” value is 59.7%.
For `CC[C@H](C)[C@H](NC(=O)[C@H](CCC(=O)O)NC(=O)[C@H](CO)NC(=O)[C@@H](NC(=O)[C@@H](N)CO)C(C)C)C(=O)N[C@@H](CCC(N)=O)C(=O)N[C@@H](CC(C)C)C(=O)N[C@@H](CCSC)C(=O)N[C@@H](Cc1cnc[nH]1)C(=O)N[C@@H](CC(N)=O)C(=O)N[C@@H](CC(C)C)C(=O)NCC(=O)N[C@@H](CCCCN)C(=O)N[C@@H](Cc1cnc[nH]1)C(=O)N[C@@H](CC(C)C)C(=O)N[C@@H](CC(N)=O)C(=O)N[C@@H](CO)C(=O)N[C@@H](CCSC)C(=O)N[C@@H](CCC(=O)O)C(=O)N[C@@H](CCCN=C(N)N)C(=O)N[C@H](C(=O)N[C@@H](CCC(=O)O)C(=O)N[C@@H](Cc1c[nH]c2ccccc12)C(=O)N[C@@H](CC(C)C)C(=O)N[C@@H](CCCN=C(N)N)C(=O)N[C@@H](CCCCN)C(=O)N[C@@H](CCCCN)C(=O)N[C@@H](CC(C)C)C(=O)N[C@@H](CCC(N)=O)C(=O)N[C@@H](CC(=O)O)C(=O)N[C@H](C(=O)N[C@@H](Cc1cnc[nH]1)C(=O)N[C@@H](CC(N)=O)C(=O)N[C@@H](Cc1ccccc1)C(=O)O)C(C)C)C(C)C` [PTH], the “bony ingrowth / bony regeneration” value turned out to be 56%.
